# Experiments:
# Assay type in all cases: biochemical
# GST-HsPRMT9 = target: T1, GST-HsPRMT9 (Homo sapiens, UniProt Q6P2P2); experiment: Radioisotope-based assay (SDS-PAGE, fluorography, densitometry), HsPRMT9; conditions: substrate GST-SF3B2 (401–550), 37 °C, read-out: % HsPRMT9 residual activity
# T1 construct: made in house; host or cells: E. coli
# T1 sequence (Q6P2P2 1-845): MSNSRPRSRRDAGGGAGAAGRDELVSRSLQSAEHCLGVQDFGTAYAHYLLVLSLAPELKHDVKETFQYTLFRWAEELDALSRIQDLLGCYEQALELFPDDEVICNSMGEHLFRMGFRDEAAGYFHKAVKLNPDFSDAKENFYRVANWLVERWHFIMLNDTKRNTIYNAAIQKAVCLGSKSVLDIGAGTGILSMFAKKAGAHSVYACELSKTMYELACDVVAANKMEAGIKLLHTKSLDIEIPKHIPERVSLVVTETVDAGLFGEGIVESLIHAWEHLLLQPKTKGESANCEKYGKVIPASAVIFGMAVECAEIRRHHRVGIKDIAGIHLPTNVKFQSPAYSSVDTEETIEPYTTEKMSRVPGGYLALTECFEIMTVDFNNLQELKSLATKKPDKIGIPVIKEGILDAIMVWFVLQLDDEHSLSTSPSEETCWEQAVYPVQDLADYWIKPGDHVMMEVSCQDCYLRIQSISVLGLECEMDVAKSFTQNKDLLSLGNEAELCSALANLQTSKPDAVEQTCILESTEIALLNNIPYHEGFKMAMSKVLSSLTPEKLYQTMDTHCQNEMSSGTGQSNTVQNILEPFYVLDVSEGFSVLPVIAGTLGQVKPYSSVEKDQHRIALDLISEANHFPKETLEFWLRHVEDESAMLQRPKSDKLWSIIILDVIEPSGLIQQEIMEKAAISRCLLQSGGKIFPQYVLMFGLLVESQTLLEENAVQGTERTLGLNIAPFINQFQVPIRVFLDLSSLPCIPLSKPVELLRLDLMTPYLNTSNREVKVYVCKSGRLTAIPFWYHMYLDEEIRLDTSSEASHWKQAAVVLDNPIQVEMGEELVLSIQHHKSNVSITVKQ
# Procedure: Based on these outcomes, we resolved to explore the effect on the capability to inhibit PRMT9 enzymatic activity of further reduction of the distance between the pharmacophoric moieties. […] After the experiment was repeated with 100, 250, and 500 μM concentrations of each inhibitor, half inhibition was observed only at a concentration of roughly 250 μM (Figure 4d).
# […]. The experiments were performed as reported in the Experimental procedures section. GST-HsPRMT9 (a) and GST-HsPRMT7 (b) were incubated with human GST-SF3B2 (401–550) peptide or recombinant HsH2B, respectively (1 μg of enzyme, 5 μg of substrate), 0.14 μM [^3H]SAM, and the indicated concentrations of tested compounds at the corresponding optimal reaction temperature (37 °C for HsPRMT9, 15 °C for HsPRMT7). C. elegans GST-tagged enzymes PRMT9 (c) and PRMT7 (d) were incubated with GST-CeSFTB-2 (99–248) fragment or recombinant HsH2B, respectively (1 μg of enzyme, 5 μg of substrate), 0.14 μM [^3H]SAM, and the indicated concentrations of tested compounds at the corresponding optimal reaction temperature (25 °C for CePRMT9, 15 °C for CePRMT7). After SDS-PAGE, the gels were treated as previously described[48] and densitometry analysis was done using ImageJ software, and data was plotted as normalized activity to the no inhibitor controls.
# Human PRMT9, C. elegans PRMT9, human PRMT7, and C. elegans PRMT7 plasmids were sequenced, expressed in E. coli as GST-fusion proteins, and purified as previously described.[48] Substrates were also sequenced and purified as described [human GST-SF3B2 (401–550);[13]C. elegans SFTB-2;[48] human histone H2B (New England Biolabs, M2505S)]. Xenopus laevis histone H2B was expressed in E. coli and purified similarly to what was previously reported by Luger et al.[72]
# Reactions consisting of approximately 1 μg of enzyme (human or C. elegans GST-tagged enzymes PRMT9 and PRMT7), reacted with approximately 5 μg of substrate [for human PRMT9, human GST-SF3B2 401–550 fragment; C. elegans PRMT9 with C. elegans GST-SFTB-2 (99–248) fragment, or recombinant human histone H2B from New England Biolabs (M2505S)], were incubated for the indicated time in reaction buffer {50 mM potassium HEPES buffer, 10 mM NaCl, 1 mM dithiothreitol (DTT), pH 8.0 with 0.7 μM S-adenosyl-L-[methyl-^3H]methionine (^3H-AdoMet, PerkinElmer Life Sciences, 82.7 Ci/mmol, 0.55 mCi/mL in 10 mM H2SO4/EtOH [9:1 (v/v)])} in a final reaction volume of 60 μL. Each reaction was incubated at the corresponding optimal reaction temperature (37 °C for human PRMT9, 25 °C for C. elegans PRMT9, and 15 °C for C. elegans and human PRMT7 enzymes. MTA was dissolved in water, and a wavelength scan was taken to determine the final concentration using the extinction coefficient. The final concentrations used are indicated in the figure legends. […]. EML734, EML736, and EML709 were also dissolved in DMSO, and further dilutions were made in DMSO for the working stocks. For controls, no inhibitor reactions were created by the addition of the respective solvent (water for MTA and DMSO for EPZ015666 and EML inhibitors).
# After the reaction incubations with the various concentrations of inhibitors, the reactions were quenched by adding 0.2 volume of 5× SDS sample loading buffer, and subsequently, the reactions were run on a 12.6% polyacrylamide Tris gel. To collect the radioactive signal, the gels were then treated in the same way as previously described.[48]
# After various exposures were collected to ensure linear detection, densitometry analysis was done using ImageJ software, and data were plotted as normalized activity to the no inhibitor controls.
# PRMT5/MEP50 complex = target: T2, PRMT5/MEP50 complex (Homo sapiens, UniProt O14744); experiment: HotSpot radioisotope-based filter assay, PRMT5
# T2 construct: residues PRMT5 2–637, C-terminus, and MEP50 2–342, C-terminus; FLAG (N); purchased Reaction Biology Corporation
# T2 sequence (O14744 2-637): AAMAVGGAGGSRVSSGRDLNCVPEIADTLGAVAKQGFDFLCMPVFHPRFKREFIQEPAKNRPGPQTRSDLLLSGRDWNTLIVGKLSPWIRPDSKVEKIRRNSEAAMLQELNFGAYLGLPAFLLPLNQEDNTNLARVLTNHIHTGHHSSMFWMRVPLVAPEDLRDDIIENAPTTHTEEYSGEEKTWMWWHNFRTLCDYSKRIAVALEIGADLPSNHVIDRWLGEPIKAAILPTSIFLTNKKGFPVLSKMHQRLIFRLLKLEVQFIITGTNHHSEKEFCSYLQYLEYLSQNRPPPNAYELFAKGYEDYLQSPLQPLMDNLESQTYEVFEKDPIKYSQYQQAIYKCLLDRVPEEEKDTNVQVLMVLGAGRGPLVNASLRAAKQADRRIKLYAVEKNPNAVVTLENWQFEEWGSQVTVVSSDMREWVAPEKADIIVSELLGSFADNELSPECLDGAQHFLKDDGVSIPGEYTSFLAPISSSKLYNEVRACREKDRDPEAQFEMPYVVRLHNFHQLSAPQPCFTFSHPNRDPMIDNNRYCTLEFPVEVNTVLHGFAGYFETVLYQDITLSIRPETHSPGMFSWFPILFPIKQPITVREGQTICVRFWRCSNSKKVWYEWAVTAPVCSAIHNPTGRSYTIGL
# T2 sequence (Q9BQA1 2-342 partner limits assumed): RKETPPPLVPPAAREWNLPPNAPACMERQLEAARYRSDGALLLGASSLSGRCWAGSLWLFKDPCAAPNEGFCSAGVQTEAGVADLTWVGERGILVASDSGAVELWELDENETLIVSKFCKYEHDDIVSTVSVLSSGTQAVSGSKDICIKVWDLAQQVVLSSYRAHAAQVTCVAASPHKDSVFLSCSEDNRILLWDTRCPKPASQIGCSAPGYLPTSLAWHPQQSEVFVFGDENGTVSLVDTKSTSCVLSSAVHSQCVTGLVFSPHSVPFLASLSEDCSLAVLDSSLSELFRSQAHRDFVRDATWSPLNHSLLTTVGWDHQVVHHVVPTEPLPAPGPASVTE
# Procedure: (§1) Then, ^3H-SAM (final concentration of 1 μM) was delivered into the reaction mixture to initiate the reaction. After incubation for 60 min at 30 °C, the reaction mixture was delivered to filter-paper for detection (as assessed by scintillation). Data were analyzed using Excel and GraphPad Prism 6.0 software (GraphPad Software Inc., San Diego, CA) for IC50 curve fits using sigmoidal dose vs response - variable slope (four parameters) equations.
# PRMT6 = target: T3, PRMT6 (Homo sapiens, UniProt Q96LA8); experiment: HotSpot radioisotope-based filter assay, PRMT6
# T3 construct: PRMT6 (residues 2–375, C-terminus); with an N-terminal GST-tag; GST (N); purchased Reaction Biology Corporation
# T3 sequence (Q96LA8 2-375): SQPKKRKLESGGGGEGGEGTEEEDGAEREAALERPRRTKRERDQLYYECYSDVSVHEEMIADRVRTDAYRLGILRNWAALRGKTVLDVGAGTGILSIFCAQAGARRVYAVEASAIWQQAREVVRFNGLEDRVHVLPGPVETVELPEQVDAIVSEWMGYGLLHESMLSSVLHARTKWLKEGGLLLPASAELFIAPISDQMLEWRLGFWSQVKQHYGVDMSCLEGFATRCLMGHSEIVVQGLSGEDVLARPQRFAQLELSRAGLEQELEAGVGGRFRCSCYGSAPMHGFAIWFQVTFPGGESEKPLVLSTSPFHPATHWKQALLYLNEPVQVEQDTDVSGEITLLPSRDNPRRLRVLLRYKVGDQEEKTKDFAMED
# Procedure: as §1
# PRMT8 = target: T4, PRMT8 (Homo sapiens, UniProt Q9NR22); experiment: HotSpot radioisotope-based filter assay, PRMT8
# T4 construct: (residues 61–394, C-terminus); with C- and N-terminal His-tags; His (N); His (C); purchased Reaction Biology Corporation
# T4 sequence (Q9NR22 61-394): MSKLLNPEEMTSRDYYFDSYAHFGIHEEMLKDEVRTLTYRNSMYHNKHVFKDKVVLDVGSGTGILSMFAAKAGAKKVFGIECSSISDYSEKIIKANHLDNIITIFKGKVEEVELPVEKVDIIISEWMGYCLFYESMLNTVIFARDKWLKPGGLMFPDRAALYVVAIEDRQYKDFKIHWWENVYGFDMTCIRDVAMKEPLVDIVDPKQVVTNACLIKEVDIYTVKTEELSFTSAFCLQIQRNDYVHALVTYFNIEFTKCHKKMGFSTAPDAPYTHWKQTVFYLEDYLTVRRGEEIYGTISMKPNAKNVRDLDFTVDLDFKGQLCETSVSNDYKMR
# Procedure: as §1
# [1] = Figure 2, from IC50 values of ref 31
SMILES,remaining activity at 5 µM (GST-HsPRMT9),remaining activity at 25 µM (GST-HsPRMT9),remaining activity at 50 µM (GST-HsPRMT9),remaining activity at 100 µM (GST-HsPRMT9),selectivity index for PRMT7 over PRMT5 (PRMT5/MEP50 complex; [1]),selectivity index for PRMT7 over PRMT6 (PRMT6; [1]),selectivity index for PRMT7 over PRMT8 (PRMT8; [1]),"IC50 (PRMT5/MEP50 complex; 5 μM histone H2A, 3H-SAM 1 μM)","IC50 (PRMT6; 5 μM GST-GAR, 3H-SAM 1 μM)","IC50 (PRMT8; 5 μM histone H4, 3H-SAM 1 μM)"
COC(=O)c1cc(O)c2cc(NC(=O)NCCCNC(=N)NC[C@H]3O[C@@H](n4cnc5c(N)ncnc54)[C@H](O)[C@@H]3O)ccc2c1 [1a],30.4%,3.42%,1.37%,0.3%,–,–,–,–,–,–
COC(=O)c1cc(O)c2cc(NC(=O)NCCCCNC(=N)NC[C@H]3O[C@@H](n4cnc5c(N)ncnc54)[C@H](O)[C@@H]3O)ccc2c1 [1b],46%,13.8%,6.15%,1.64%,–,–,–,–,–,–
COC(=O)c1cc(O)c2cc(NC(=O)NCCCCCNC(=N)NC[C@H]3O[C@@H](n4cnc5c(N)ncnc54)[C@H](O)[C@@H]3O)ccc2c1 [1c],32%,6.5%,0.52%,0.34%,234 fold,455 fold,27 fold,–,–,–
"COC(=O)c1cc(O)c2cc(NC(=O)NCCCNC(=N)NC[C@H]3O[C@@H](n4cnc5c(N)ncnc54)[C@H](O)[C@@H]3O)cc(C(F)(F)F)c2c1 [1j, Methyl 6-(3-(3-(3-(((2R,3S,4R,5R)-5-(6-Amino-9H-purin-9-yl)-3,4-dihydroxytetrahydrofuran-2-yl)methyl)guanidino)propyl)ureido)-4-hydroxy-8-(trifluoromethyl)-2-naphthoate]",–,–,–,–,–,–,–,1010 nM,49700 nM,1970 nM

# From paper PMC10578352, “Identification of a Protein Arginine Methyltransferase 7 (PRMT7)/Protein Arginine Methyltransferase 9 (PRMT9) Inhibitor” (Journal of Medicinal Chemistry, 2023)
